From US10420781B2, “Thyroid hormone receptor agonist and use thereof” (Metabasis Therapeutics, Inc., priority 2016, dated 2019)
“Also recorded” adds a separate entry of the source.

Tests used:
beagle dogs [1] = assay: Once-daily oral administration for 14 days, thyroid function tests (tT4, fT4, tT3, fT3, TSH) in beagle dogs; format: in vivo, dog
Description: (§1) The effects of once-daily oral administration of Compound I on plasma cholesterol levels and thyroid function indicators in beagle dogs were evaluated for 14 days.
(§2) Male and female beagle dogs were purchased from Marshall Farms (North Rose, N.Y.) at approximately 9-15 kg in body weight. Animals were housed individually under a 12 hour lighting cycle (7 am-7 pm light) and controlled temperature (˜22° C.). The dogs were fed twice-daily with Teklad 8563 chow (Harlan Teklad, Madison, Wis.) and allowed water ad libitum.
Compound I was dissolved in 100% PEG-400. The formulation was prepared just prior to initiation of treatment and stored at 4° C. A fresh formulation was prepared for each 7 day treatment period.
Twelve beagle dogs (9-15 kg) were randomized into 6 dosing groups (1 male and 1 female/group) and gavaged once-daily with a PEG-400 solution of Compound I at doses of 0.1, 0.3, 1, 3, or 10 mg/kg or with vehicle for 14 days. At the end of the treatment cycle (Cycle 1), the dogs were washed out for 6 weeks and then entered into a second 14-day treatment cycle. Cycle 2 employed the same dosing paradigm as Cycle 1, but animals were randomized to Cycle 2 in such a way that the combined dosing groups from the two cycles each consisted of 4 different animals (2 males, 2 females). Blood samples were collected at baseline and appropriate time intervals thereafter and analyzed for total plasma cholesterol levels, serum levels of total T4 (tT4), free T4 (fT4), total T3 (tT3), free T3 (fT3), thyroid stimulating hormone (TSH), and plasma drug levels.
Serum samples were shipped on dry ice to the Diagnostic Center for Population and Animal Health (Lansing, Mich.) and assayed for total T4 (tT4), free T4 (fT4), total T3 (tT3), free T3 (fT3), and thyroid stimulating hormone (TSH). Average values±the standard error of the mean (SEM) were calculated for all treatment groups.

[2] = test system: fT3 and fT4 levels in human serum; assay: Ex vivo effect on fT3 and fT4 levels in human serum (RIA)
Description: (§3) Compound I was tested to measure its ex vivo effects at concentrations ranging from 0 to 100 μM on the free 3,5,3′-triiodothyronine (fT3) and the free 3,5,3′,5′ tetraiodothyronine (fT4) levels in human, monkey, dog, and rat sera.
(§4) Stock solution of Compound I was prepared in 100% DMSO. The test articles were combined with either human, monkey, dog or rat serum in a microcentrifuge tube at concentrations of 1, 3, 10, 30, and 100 μM, and incubated at 37° C. with agitation (800 rpm) using a Thermomixer R (Eppendorf, Inc.; Westbury, N.Y.) for 1 h. The DMSO concentration in the serum incubations was kept constant at 1%. Following the serum incubations, fT3 and T4 quantification was accomplished using the GammaCoat™ FT3 and the GammaCoat™ FT4 RIA kits, respectively. The kits were used according to the manufacturer's recommendations. The T3 assay specifications indicate 0.2% cross-reactivity with T4, while the T4 assay specifications indicate 0.5% cross-reactivity with T3. In these […] assays, a shaking water bath and a Wallac Wizard 1470 automatic gamma counter (Perkin Elmer, Inc.; Waltham, Mass.) were used. At each concentration tested, a background signal was subtracted from the data. This background signal was determined in samples of the test articles in PBS in the absence of serum. All assays were performed in duplicate.

beagle dogs [3] = assay: Comparison of Compound I and MB07811: cholesterol, tT4 and TSH in beagle dogs; format: in vivo, dog
Description: Compound I was compared with Compound MB07811 with respect to their efficacy in lowering cholesterol and their effects on the total T4 (tT4) and thyroid stimulating hormone (TSH).
Compound I and Compound MB07811 were tested to determine the effects of oral administration of each compound once-daily for 14 days followed by alternate day dosing for 14 days on plasma cholesterol levels and indicators of thyroid function in beagle dogs.
as §2, with “Beagle” for “beagle”, “kg.” for “kg in body weight.”, “12-hour” for “12 hour”, “twice daily” for “twice-daily”
MB07811 was administered as a suspension in 0.5% CMC/1% Lutrol in deionized water. To prepare the vehicle, the required amount of CMC was weighed and dissolved in deionized water using a Waring blender. The required amount of Lutrol F68 was weighed and slowly added to the Waring blender while mixing. […]
Twelve beagle dogs (9-15 kg) were randomized into 6 dosing groups (1 male and 1 female/group) and gavaged once-daily with a 0.5% CMC/1% Lutrol F68 suspension of MB07811 at doses of […] or with vehicle for 14 days. […] Blood samples were collected at baseline and appropriate time intervals thereafter and analyzed for total plasma cholesterol levels, serum levels of total T4 (tT4), free T4 (fT4), total T3 (tT3), free T3 (fT3), and thyroid stimulating hormone (TSH). […]
(§5) Twelve beagle dogs (9-15 kg) were randomized into 6 dosing groups (1 male and 1 female/group) and gavaged once-daily with a PEG-400 solution of Compound I at doses of 0.1, 0.3, 1, 3, or 10 mg/kg or with vehicle for 14 days. […] Blood samples were collected at baseline and appropriate time intervals thereafter and analyzed for total plasma cholesterol levels, serum levels of total T4 (tT4), free T4 (fT4), total T3 (tT3), free T3 (fT3), and thyroid stimulating hormone (TSH), and for plasma drug levels

[4] = test system: fT3 and fT4 levels in monkey serum; assay: Ex vivo effect on fT3 and fT4 levels in monkey serum (RIA); settings: 1 h at 37° C., 1-100 μM tested
Description: as §3, §4

[5] = test system: fT3 and fT4 levels in dog serum; assay: Ex vivo effect on fT3 and fT4 levels in dog serum (RIA); settings: 1 h at 37° C., 1-100 μM tested
Description: as §3, §4

[6] = test system: fT3 and fT4 levels in rat serum; assay: Ex vivo effect on fT3 and fT4 levels in rat serum (RIA); settings: 1 h at 37° C., 1-100 μM tested
Description: as §3, §4

[7] = test system: cholesterol-fed Sprague Dawley rat; assay: Single oral dose, plasma cholesterol lowering in cholesterol-fed rat; format: in vivo; settings: 24 hours
Description: Compound I was tested to determine the cholesterol lowering efficacy and potency of Compound I following oral administration of single dose to a standard rodent model of hypercholesterolemia, the cholesterol-fed Sprague Dawley rat.
Male Sprague Dawley rats were obtained from Harlan (Livermore, Calif.) at a body weight of 250 g, caged 3 rats/cage, and housed under a 12 h:12 h, light:dark cycle (lights on at 7 AM). Pelleted 5001 chow containing 1.5% cholesterol and 0.5% cholic acid (Harlan Teklad, Indianapolis, Ind.) was provided for 2 weeks prior to the initiation of treatment. Food and water were provided ad libitum.
Compound I was dissolved in 100% PEG-400. […]
Male Sprague Dawley rats (˜250 g) were fed a diet containing 1.5% cholesterol and 0.5% cholic acid for 2 weeks prior to the initiation of treatment. Compound I was administered as an oral solution in PEG-400 and phosphate buffered saline, respectively, at doses ranging from 0.3 to 100 mg/kg Compound I. Thyroid hormone T3 (0.1 mg/kg) was evaluated as a positive control. […]
Plasma was prepared from the blood samples by centrifugation in an Eppendorf Microfuge (14,000 rpm, 2 min, room temperature). Total plasma cholesterol was measured using the Infinity cholesterol reagent (Thermo Electron Corporation, Waltham, Mass.) and a standard curve prepared with a 300 mg/dL cholesterol standard. […]

rat = assay: Pilot rat 28-day safety study; settings: 28 days; 1 and 5 mg/kg per day
Description: Two doses were tested, 1 mg/kg per day and 5 mg/kg per day. […] The mice were sacrificed on day 29 and then analyzed for clinical signs, BW, FC Clinical pathology (including TSH, T3, T4), gross pathology, organ weights, histopathology, toxicokinetics.

beagle dogs [8] = assay: Once-daily oral administration for 14 days, total plasma cholesterol in beagle dogs; format: in vivo, dog; settings: 14 days once-daily oral, 0.1-10 mg/kg/day
Description: as §1, §2
Compound I was dissolved in 100% PEG-400. The formulation was prepared just prior to initiation of treatment and stored at 4° C. […]
as §5, with “(fT3),” for “(fT3), and”, “and” for “and for”, “drug levels.” for “drug levels”
Total plasma cholesterol was measured using an Infinity cholesterol reagent (Thermo Electron Corporation, Waltham, Mass.) and with use of a standard curve prepared from a 300 mg/dL cholesterol standard. […]

[9] = all five doses 0.1, 0.3, 1, 3, 10 mg/kg, baseline, 8-day, 15-day

Cc1cc(OCP(=O)(OCOC(=O)C(C)(C)C)OCOC(=O)C(C)(C)C)cc(C)c1Cc1ccc(O)c(Cc2ccccc2)c1 [Compound I]
reduction of serum fT3 (beagle dogs [1]; 14 days, highest dose group 10 mg/kg/day): about 45%
reduction of serum tT4 from baseline (beagle dogs [1]; Day 15, 1 mg/kg/day): about 29%
tT4 levels reduced relative to baseline (in the fT3 paragraph, FIG. 9) (beagle dogs [1]; Day 15, 10 mg/kg/day): ~45%
reduction of serum tT4 from baseline (beagle dogs [1]; Day 15, 0.1, 0.3 and 3 mg/kg/day): 6.7-9.5%
change of serum TSH levels from baseline (beagle dogs [1]; Day 15, 0.1 to 10 mg/kg/day): no meaningful changes; also recorded: did not show any effect; also recorded: essentially unaffected
reduction of serum fT4 from baseline (beagle dogs [1]; Day 15, all Compound I treated groups, not dose dependent, vehicle about 19%): 13-32%
reduction of serum fT3 from baseline (beagle dogs [1]; Day 15, doses up to and including 3 mg/kg/day): 8-20%
reduction of serum tT3 from baseline (beagle dogs [1]; Day 15, treatment groups, not dose dependent, vehicle about 13%): 8-15%
concentration at which no effect on fT3 was shown [2]: less than 30
concentration at which no effect on fT4 was shown [2]: less than 100 μM
highest concentration at which no increase in fT3 level was observed ([2]; 1 h at 37° C., 1-100 μM tested): 30 µM
highest concentration at which no increase in fT4 level was observed ([2]; 1 h at 37° C., 1-100 μM tested): 100 µM
effect on T4 (tT4) levels in comparison (beagle dogs [3]; [9]): reduced effect
effect on serum TSH level in comparison with MB07811 (beagle dogs [3]; [9]): no effect
effect on the thyroid hormone axis (T4 and TSH) versus MB07811 (beagle dogs [3]; dog, in vivo): much reduced effect
highest concentration at which no increase in fT3 level was observed [4]: 30 µM
highest concentration at which no increase in fT4 level was observed [4]: 100 µM
highest concentration at which no increase in fT3 level was observed [5]: 100 µM
highest concentration at which no increase in fT4 level was observed [5]: 100 µM
highest concentration at which no increase in fT3 level was observed [6]: 100 µM
highest concentration at which no increase in fT4 level was observed [6]: 100 µM
ED50 ([7]; Rattus norvegicus, single oral dose, read-out: ED50 (dose that elicits a half-maximal reduction in total plasma cholesterol levels from baseline)): ~2 mg/kg
TFT effects greater than Compound MB07811 (rat): no evidence
cardiac or liver necrosis (rat): no evidence
deaths or adverse effects on body weight, food consumption, hematology, serum chemistry or urinalysis, or macroscopic or microscopic pathology (rat): no deaths or adverse effects
reduction of total plasma cholesterol levels, dose dependent (beagle dogs [8]): 15-38%

N[C@@H](Cc1cc(I)c(Oc2ccc(O)c(I)c2)c(I)c1)C(=O)O [Compound T3, 3,5,3′-triiodo-L-thyronine, reference compound]
magnitude of cholesterol lowering versus Compound I at its two highest doses ([7]; T3 0.1 mg/kg, Compound I 30 and 100 mg/kg): comparable
